Results as given in patent US20240307525A1 (priority 2020, published 2024).

Columns and labels:
Test in all cases: microbe, parasite or virus in culture
Type in all cases: cell-based, SARS-COV-2
[1] = tested on: rSARS-COV-2-Venus; conditions: Severe acute respiratory syndrome coronavirus 2, Vero C1008
[2] = tested on: rSARS-COV-2-Nluc; conditions: Severe acute respiratory syndrome coronavirus 2, Vero C1008, 48 h
[3] = tested on: rSARS-COV-2/WT; conditions: Severe acute respiratory syndrome coronavirus 2, Vero C1008
[4] = tested on: rSARS-COV-2-mCherry; conditions: Severe acute respiratory syndrome coronavirus 2, Vero C1008

CCC(CC)COC(=O)[C@H](C)N[P@](=O)(OC[C@H]1O[C@@](C#N)(c2ccc3c(N)ncnn23)[C@H](O)[C@@H]1O)Oc1ccccc1 [Remdesivir]
EC50 [1]: 1070 nM | EC50 [2]: 1790 nM | EC50 [3]: 1510 nM | EC50 [4]: 1780 nM
